Assay [1] deals with congestive heart failure in Dahl salt-sensitive rats. The conditions noted are these: cited from earlier work.
A further assay concerns neointimal formation. The following applies: rats; cited from earlier work.
For another assay, the target named is ROCK1 (Homo sapiens (Human), UniProt Q13464). In words: ROCK assay (LABCHIP peptide phosphorylation), ROCK1. The class given is biochemical. The following applies: 5 μM ATP, 1.5 μM peptide substrate; read-out: ROCK1 IC50.
Another assay addresses ROCK2 (Homo sapiens (Human), UniProt O75116). The assay is described as follows: ROCK assay (LABCHIP peptide phosphorylation), ROCK2. In kind it is biochemical. The following applies: 5 μM ATP, 1.5 μM peptide substrate.
Another assay relates to rat stroke model. The conditions noted are these: cited from earlier work.

Counter-ions that a name gives are not always drawn.

Sequence of ROCK1 (Q13464 whole entry, species assumed): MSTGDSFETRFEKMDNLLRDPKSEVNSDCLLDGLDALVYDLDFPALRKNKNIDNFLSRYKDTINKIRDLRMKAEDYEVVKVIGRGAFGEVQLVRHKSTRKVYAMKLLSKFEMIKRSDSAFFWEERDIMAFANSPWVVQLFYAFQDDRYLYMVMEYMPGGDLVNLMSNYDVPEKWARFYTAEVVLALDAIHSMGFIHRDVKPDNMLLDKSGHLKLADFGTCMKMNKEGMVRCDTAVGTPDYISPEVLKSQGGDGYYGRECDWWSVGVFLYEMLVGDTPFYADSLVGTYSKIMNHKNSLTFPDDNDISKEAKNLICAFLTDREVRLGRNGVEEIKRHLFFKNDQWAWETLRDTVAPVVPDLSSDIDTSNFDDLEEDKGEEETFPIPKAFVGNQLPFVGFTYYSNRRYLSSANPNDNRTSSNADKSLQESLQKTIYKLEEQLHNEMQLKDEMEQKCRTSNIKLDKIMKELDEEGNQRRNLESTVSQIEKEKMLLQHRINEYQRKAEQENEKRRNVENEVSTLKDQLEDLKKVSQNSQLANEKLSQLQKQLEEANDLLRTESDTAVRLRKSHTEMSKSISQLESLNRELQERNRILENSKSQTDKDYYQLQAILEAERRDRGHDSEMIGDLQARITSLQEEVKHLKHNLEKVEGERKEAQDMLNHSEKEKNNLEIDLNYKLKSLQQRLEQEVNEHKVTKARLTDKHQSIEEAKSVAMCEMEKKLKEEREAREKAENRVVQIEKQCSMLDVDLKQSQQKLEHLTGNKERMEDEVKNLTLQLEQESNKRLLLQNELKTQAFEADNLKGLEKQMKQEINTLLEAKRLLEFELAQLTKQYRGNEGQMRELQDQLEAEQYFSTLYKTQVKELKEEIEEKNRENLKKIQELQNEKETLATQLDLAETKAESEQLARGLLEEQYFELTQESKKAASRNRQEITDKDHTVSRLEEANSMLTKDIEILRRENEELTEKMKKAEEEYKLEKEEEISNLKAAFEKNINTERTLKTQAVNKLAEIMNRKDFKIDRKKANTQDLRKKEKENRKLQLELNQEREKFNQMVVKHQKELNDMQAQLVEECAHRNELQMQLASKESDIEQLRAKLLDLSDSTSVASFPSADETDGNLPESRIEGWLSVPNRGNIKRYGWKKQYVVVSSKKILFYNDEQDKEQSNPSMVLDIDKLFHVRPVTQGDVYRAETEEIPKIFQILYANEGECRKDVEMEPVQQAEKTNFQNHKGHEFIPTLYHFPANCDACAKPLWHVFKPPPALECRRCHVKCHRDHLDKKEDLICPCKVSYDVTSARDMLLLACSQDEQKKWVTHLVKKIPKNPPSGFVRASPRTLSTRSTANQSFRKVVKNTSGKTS
Sequence of ROCK2 (O75116 whole entry, species assumed): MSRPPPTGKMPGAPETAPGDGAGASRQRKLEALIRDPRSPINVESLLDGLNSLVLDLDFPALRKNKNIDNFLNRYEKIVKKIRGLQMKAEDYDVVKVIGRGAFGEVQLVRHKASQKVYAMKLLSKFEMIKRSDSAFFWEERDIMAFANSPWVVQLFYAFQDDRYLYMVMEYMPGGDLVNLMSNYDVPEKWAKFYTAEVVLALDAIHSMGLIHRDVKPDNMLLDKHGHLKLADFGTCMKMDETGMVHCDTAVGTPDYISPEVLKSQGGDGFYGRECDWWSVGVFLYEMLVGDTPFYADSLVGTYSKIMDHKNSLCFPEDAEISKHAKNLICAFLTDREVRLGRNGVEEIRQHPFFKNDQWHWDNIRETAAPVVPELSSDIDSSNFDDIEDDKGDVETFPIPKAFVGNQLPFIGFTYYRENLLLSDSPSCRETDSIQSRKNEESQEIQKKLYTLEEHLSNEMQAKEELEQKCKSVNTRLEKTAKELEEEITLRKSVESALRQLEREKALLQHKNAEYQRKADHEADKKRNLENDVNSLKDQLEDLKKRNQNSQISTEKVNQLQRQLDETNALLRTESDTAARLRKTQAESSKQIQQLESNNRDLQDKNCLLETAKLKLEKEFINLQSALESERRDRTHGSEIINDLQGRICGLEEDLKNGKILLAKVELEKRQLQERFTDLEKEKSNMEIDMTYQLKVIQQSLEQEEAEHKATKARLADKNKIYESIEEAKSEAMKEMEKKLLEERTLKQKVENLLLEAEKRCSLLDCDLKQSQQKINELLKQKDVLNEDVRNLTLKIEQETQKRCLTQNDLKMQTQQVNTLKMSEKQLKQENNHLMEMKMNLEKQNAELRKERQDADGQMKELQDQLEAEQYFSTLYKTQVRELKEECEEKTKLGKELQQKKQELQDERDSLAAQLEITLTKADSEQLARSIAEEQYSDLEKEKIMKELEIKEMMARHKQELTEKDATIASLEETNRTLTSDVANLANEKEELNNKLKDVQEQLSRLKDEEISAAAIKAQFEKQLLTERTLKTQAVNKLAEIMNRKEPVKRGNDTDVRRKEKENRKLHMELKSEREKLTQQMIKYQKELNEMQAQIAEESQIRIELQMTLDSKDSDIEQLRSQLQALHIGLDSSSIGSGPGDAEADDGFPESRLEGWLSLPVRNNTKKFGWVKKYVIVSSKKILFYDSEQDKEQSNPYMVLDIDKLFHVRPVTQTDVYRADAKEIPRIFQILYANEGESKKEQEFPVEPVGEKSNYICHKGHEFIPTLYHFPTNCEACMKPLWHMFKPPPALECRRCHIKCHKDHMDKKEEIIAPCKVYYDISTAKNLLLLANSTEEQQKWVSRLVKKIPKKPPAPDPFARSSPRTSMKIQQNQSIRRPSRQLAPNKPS

As to `C[C@@H](N)[C@H]1CC[C@H](C(=O)Nc2ccncc2)CC1` [Example Y-27632], the “ventricular hypertrophy, fibrosis and function” value in assay [1] is “improve ventricular hypertrophy, fibrosis and function”. The neointimal formation entry with neointimal formation was “inhibited neointimal formation”.
As a reminder, the IC50 is the concentration that inhibits the measured activity by half. As to `Cc1cc(NC(=O)c2nn(CC3CN(C)C3)c3ccccc23)ccc1-c1n[nH]c(=O)c2ccccc12` [Example 330, N-(3-Methyl-4-(4-oxo-3,4-dihydrophthalazin-1-yl)phenyl)-1-((1-methylazetidin-3-yl)methyl)-1H-indazole-3-carboxamide], the IC50 on ROCK1 fell in the range of 0.1 to 100 nM; at ROCK2, 101 to 1000 nM.
The corresponding values for `CC(=O)N1CCC(C(=O)Nc2ccc(-c3n[nH]c(=O)c4ccccc34)cc2)CC1` [Example 55, 1-acetyl-N-[4-(4-oxo-3,4-dihydrophthalazin-1-yl)phenyl]piperidine-4-carboxamide] are 1000 to 50000 nM and 1000 to 50000 nM.
`CCOc1ccc2c(c1)N(C(=O)Cc1ccc(-c3c[nH]c(=O)c4ccccc34)cc1)CC2` [Example 254, 4-(4-(2-(6-Ethoxyindolin-1-yl)-2-oxoethyl)phenyl)isoquinolin-1(2H)-one]: the half-inhibitory concentration (IC50) is 101 to 1000 nM at ROCK1 and 0.1 to 100 nM at ROCK2.
For `O=C(Nc1ccc(-c2n[nH]c(=O)c3ccccc23)cc1)C1Cc2cc(O)ccc2O1` (centres unmarked) [Example 106, 5-hydroxy-N-[4-(4-oxo-3,4-dihydrophthalazin-1-yl)phenyl]-2,3-dihydro-1-benzofuran-2-carboxamide] the same measures were 1000 to 50000 nM and 0.1 to 100 nM.
The corresponding values for `CN1CCN(c2ccc(C(=O)Nc3ccc(-c4n[nH]c(=O)c5ccccc45)cc3)cc2)CC1` [Example 64, 4-(4-methylpiperazin-1-yl)-N-[4-(4-oxo-3,4-dihydrophthalazin-1-yl)phenyl]benzamide] are 101 to 1000 nM and 0.1 to 100 nM.
The corresponding values for `O=C(c1ccc2c(c1)N(C(=O)Cc1ccc(-c3n[nH]c(=O)c4ccccc34)cc1)CC2)N1CCOCC1` [Example 293, 4-(4-{2-[6-(morpholine-4-carbonyl)-2,3-dihydro-1H-indol-1-yl]-2-oxoethyl}phenyl)-1,2-dihydrophthalazin-1-one] are 101 to 1000 nM and 0.1 to 100 nM.
On to `CCn1cncc1C(=O)Nc1ccc(-c2n[nH]c(=O)c3ccccc23)cc1` [Example 233, 1-ethyl-N-[4-(4-oxo-3,4-dihydrophthalazin-1-yl)phenyl]-1H-imidazole-5-carboxamide], for which the half-maximal inhibitory concentration (IC50) on ROCK1 and on ROCK2 was 101 to 1000 nM throughout.
With `O=S(=O)(c1cccc2cnccc12)N1CCCNCC1` [fasudil], the “infarct size and neurologic deficit” value in the assay on rat stroke model was “reduce both the infarct size and neurologic deficit”.
Consider `CN1CC(=O)c2c(C(=O)Nc3ccc(-c4n[nH]c(=O)c5ccccc45)cc3)coc2C1` [Example 111, 6-methyl-4-oxo-N-[4-(4-oxo-3,4-dihydrophthalazin-1-yl)phenyl]-4H,5H,6H,7H-furo[2,3-c]pyridine-3-carboxamide], for which the IC50 on ROCK1 and against ROCK2 was 101 to 1000 nM throughout.
In the case of `CC(C)=Cn1nc(C(=O)Nc2ccc(-c3n[nH]c(=O)c4ccccc34)cc2)c2cc(F)ccc21` [Example 178, 5-fluoro-1-(2-methylprop-1-en-1-yl)-N-[4-(4-oxo-3,4-dihydrophthalazin-1-yl)phenyl]-1H-indazole-3-carboxamide], the IC50 on ROCK1 lay in the range of 101 to 1000 nM; on ROCK2, 0.1 to 100 nM.
The corresponding values for `O=C(Nc1ccc(-c2n[nH]c(=O)c3ccccc23)cc1)c1nn(CCCO)c2ccccc12` [Example 164, 1-(3-hydroxypropyl)-N-[4-(4-oxo-3,4-dihydrophthalazin-1-yl)phenyl]-1H-indazole-3-carboxamide] are 0.1 to 100 nM and 0.1 to 100 nM.
For `O=C(Nc1ccc(-c2n[nH]c(=O)c3ccccc23)c(CO)c1)c1nn(CC2CCOC2)c2ccc(F)cc12` (centres unmarked) [Example 366, 5-Fluoro-N-(3-(hydroxymethyl)-4-(4-oxo-3,4-dihydrophthalazin-1-yl)phenyl)-1-((tetrahydrofuran-3-yl)methyl)-1H-indazole-3-carboxamide] the same measures were 101 to 1000 nM and 0.1 to 100 nM.
For `Cn1cc(C(=O)Nc2ccc(-c3n[nH]c(=O)c4ccccc34)cc2)c2ccccc21` [Example 122, 1-methyl-N-[4-(4-oxo-3,4-dihydrophthalazin-1-yl)phenyl]-1H-indole-3-carboxamide], the IC50 at ROCK1 and against ROCK2 was 0.1 to 100 nM each time.
Consider `O=C(Nc1ccc(-c2n[nH]c(=O)c3ccccc23)cc1)c1cnn(C2CCNC2)c1` (centres unmarked) [Example 397, N-(4-(4-Oxo-3,4-dihydrophthalazin-1-yl)phenyl)-1-(pyrrolidin-3-yl)-1H-pyrazole-4-carboxamide], for which the values for the IC50 on ROCK1 and on ROCK2 were 1000 to 50000 nM and 101 to 1000 nM, respectively.
The corresponding values for `O=C(Cc1ccc(-c2n[nH]c(=O)c3ccccc23)cc1)NC1CCC1` [Example 19, N-cyclobutyl-2-[4-(4-oxo-3,4-dihydrophthalazin-1-yl)phenyl]acetamide] are 1000 to 50000 nM and 1000 to 50000 nM.
The corresponding values for `CC(C)Oc1ccc2c(c1)CCN2C(=O)Cc1ccc(-c2n[nH]c(=O)c3ccccc23)cc1` [Example 273, 4-(4-{2-oxo-2-[5-(propan-2-yloxy)-2,3-dihydro-1H-indol-1-yl]ethyl}phenyl)-1,2-dihydrophthalazin-1-one] are 101 to 1000 nM and 0.1 to 100 nM.
The corresponding values for `O=C(Nc1ccc(-c2n[nH]c(=O)c3ccccc23)cc1)c1nn(CC2CCCCO2)c2ccccc12` (centres unmarked) [Example 168, 1-(oxan-2-ylmethyl)-N-[4-(4-oxo-3,4-dihydrophthalazin-1-yl)phenyl]-1H-indazole-3-carboxamide] are 0.1 to 100 nM and 0.1 to 100 nM.
As to `O=C(Nc1ccc(-c2n[nH]c(=O)c3ccccc23)cc1)c1ccc(-n2ccnc2)cc1` [Example 65, 4-(1H-imidazol-1-yl)-N-[4-(4-oxo-3,4-dihydrophthalazin-1-yl)phenyl]benzamide], the IC50 on ROCK1 and against ROCK2 was 0.1 to 100 nM throughout.
In the case of `COc1ccc2c(=O)[nH]cc(-c3ccc(CC(=O)N4Cc5ccccc5C4)cc3)c2c1` [Example 262, 4-{4-[2-(2,3-Dihydro-1H-isoindol-2-yl)-2-oxoethyl]phenyl}-6-methoxy-1,2-dihydroisoquinolin-1-one], the results for the IC50 at ROCK1 and on ROCK2 were 101 to 1000 nM and 0.1 to 100 nM, respectively.
For `Cc1cc(NC(=O)c2nn(CC3CNC3)c3ccccc23)ccc1-c1n[nH]c(=O)c2ccccc12` [Example 326, 1-(Azetidin-3-ylmethyl)-N-(3-methyl-4-(4-oxo-3,4-dihydrophthalazin-1-yl)phenyl)-1H-indazole-3-carboxamide, TFA] the same measures were 0.1 to 100 nM and 101 to 1000 nM.
For `O=C(Nc1ccc(-c2n[nH]c(=O)c3ccccc23)cc1)c1cc2cc(Cl)cnc2[nH]1` [Example 119, 5-chloro-N-[4-(4-oxo-3,4-dihydrophthalazin-1-yl)phenyl]-1H-pyrrolo[2,3-b]pyridine-2-carboxamide] the same measures were 101 to 1000 nM and 0.1 to 100 nM.
For `O=C(Nc1ccc(-c2n[nH]c(=O)c3ccccc23)cc1)c1nn(CCC(=O)N2CCOCC2)c2ccccc12` [Example 337, 1-(3-Morpholino-3-oxopropyl)-N-(4-(4-oxo-3,4-dihydrophthalazin-1-yl)phenyl)-1H-indazole-3-carboxamide] the same measures were 0.1 to 100 nM and 0.1 to 100 nM.
Turning to `O=C(Nc1ccc(-c2n[nH]c(=O)c3ccccc23)cc1)c1cnn(C2CCOC2)c1` (centres unmarked) [Example 390, N-(4-(4-Oxo-3,4-dihydrophthalazin-1-yl)phenyl)-1-(tetrahydrofuran-3-yl)-1H-pyrazole-4-carboxamide], the IC50 lay in the range of 101 to 1000 nM on ROCK1 and 0.1 to 100 nM against ROCK2.
`O=c1[nH]nc(-c2ccc(Nc3nc(-c4ccccc4)cs3)cc2)c2ccccc12` [Example 74, 4-(4-((4-Phenylthiazol-2-yl)amino)phenyl)phthalazin-1(2H)-one]: the 50% inhibitory concentration (IC50) at ROCK1 lay within 1000 to 50000 nM; against ROCK2, 0.1 to 100 nM.
For `COc1ccc2c(=O)[nH]cc(-c3ccc(OC(=O)N4Cc5ccccc5C4)cc3)c2c1` [Example 269, 4-(6-Methoxy-1-oxo-1,2-dihydroisoquinolin-4-yl)phenyl isoindoline-2-carboxylate] the same measures were 1000 to 50000 nM and 0.1 to 100 nM.
On to `Cc1nc(N2CCCc3ccccc32)sc1C(=O)Nc1ccc(-c2n[nH]c(=O)c3ccccc23)cc1` [Example 241, 4-methyl-N-[4-(4-oxo-3,4-dihydrophthalazin-1-yl)phenyl]-2-(1,2,3,4-tetrahydroquinolin-1-yl)-1,3-thiazole-5-carboxamide], for which the IC50 on ROCK1 and against ROCK2 was 0.1 to 100 nM each time.
Consider `Cc1cc(C(=O)Nc2ccc(-c3n[nH]c(=O)c4ccccc34)cc2)nn1Cc1ccccc1` [Example 208, 1-benzyl-5-methyl-N-[4-(4-oxo-3,4-dihydrophthalazin-1-yl)phenyl]-1H-pyrazole-3-carboxamide], for which the IC50 on ROCK1 and against ROCK2 was 0.1 to 100 nM each time.
Turning to `O=C(Nc1ccc(-c2n[nH]c(=O)c3ccccc23)cc1)C1CC(c2cccc(Cl)c2F)=NO1` (centres unmarked) [Example 193, 3-(3-chloro-2-fluorophenyl)-N-[4-(4-oxo-3,4-dihydrophthalazin-1-yl)phenyl]-4,5-dihydro-1,2-oxazole-5-carboxamide], the IC50 on ROCK1 fell in the range of 1000 to 50000 nM; against ROCK2, 101 to 1000 nM.
For `O=C(Cc1ccc(-c2n[nH]c(=O)c3ccccc23)cc1)Nc1nc2ccccc2o1` [Example 10, N-(1,3-benzoxazol-2-yl)-2-[4-(4-oxo-3,4-dihydrophthalazin-1-yl)phenyl]acetamide] the same measures were 101 to 1000 nM and 0.1 to 100 nM.

(Values after US9926282B2, “Phthalazinones and isoquinolinones as rock inhibitors” (BRISTOL-MYERS SQUIBB COMPANY, priority 2013, dated 2018).)
